Assay results as given in patent publication US9440953B2, “Substituted amino triazoles useful as acidic mammalian chitinase inhibitors” (OncoArendi Therapeutics Sp z o.o., priority 2014, dated 2016).

Molecular target: recombinant human AMCase (Homo sapiens, UniProt Q9BZP6)
Experiment: Human AMCase Activity Assay
Type: biochemical
Conditions: recombinant hAMCase, 4-methylumbelliferyl B-D-N,N′-diacetylchitobioside substrate, citrate buffer pH 5.2, 37° C., 60 minutes
Method: Human AMCase Activity Assay
The assay was run in the 96-well plate format, each reaction in the total volume of 100 μL. 4-Methylumbelliferyl B-D-N,N′-diacetylchitobioside hydrate was used as a substrate for the enzyme. Upon hydrolysis by AMCase, the substrate releases 4-methylumbelliferyl (4MU) that, when ionized in basic pH, emits fluorescence at 460 nm.
Briefly, 40 μL of a substrate was added to each well, followed by 10 μL of compound dilution and 50 μL of hAMCase recombinant enzyme solution. […] The fluorescence of the reaction product was measured in Perkin Elmer Envision fluorescent plate reader at an excitation wavelength of 355 nm.

Sequence of recombinant human AMCase (Q9BZP6 22-476): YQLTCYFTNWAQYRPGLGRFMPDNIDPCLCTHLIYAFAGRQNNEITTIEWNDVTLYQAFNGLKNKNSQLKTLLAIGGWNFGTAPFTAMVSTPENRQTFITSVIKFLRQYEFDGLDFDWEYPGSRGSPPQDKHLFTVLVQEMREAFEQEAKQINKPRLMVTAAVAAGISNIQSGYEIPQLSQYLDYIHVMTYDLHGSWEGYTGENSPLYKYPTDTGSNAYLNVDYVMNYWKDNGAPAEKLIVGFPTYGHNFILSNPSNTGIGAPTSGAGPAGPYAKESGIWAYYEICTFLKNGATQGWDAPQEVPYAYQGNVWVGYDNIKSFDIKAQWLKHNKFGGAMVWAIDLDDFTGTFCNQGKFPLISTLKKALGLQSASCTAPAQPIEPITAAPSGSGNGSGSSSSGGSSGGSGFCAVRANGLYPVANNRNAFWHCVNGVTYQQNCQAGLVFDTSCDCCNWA

IC50 [nM] | Compound
10 to 100 | CS(=O)(=O)NC(=O)c1cc(CN(CCc2ccc(Cl)cc2)C2CCN(c3nc(N)n[nH]3)CC2)ccc1Cl [Example 41, 5-(((1-(3-amino-1H-1,2,4-triazol-5-yl)piperidin-4-yl)(4-chlorophenethyl)amino)-methyl)-2-chloro-N-(methylsulfonyl)benzamide]
1 to 10 | Cc1ccc(S(=O)(=O)NCCN(CCc2ccc(Br)cc2)C2CCN(c3nc(N)n[nH]3)CC2)cc1 [Example 42, N-(2-((1-(3-amino-1H-1,2,4-triazol-5-yl)piperidin-4-yl)(4-bromophenethyl)-amino)ethyl)-4-methylbenzenesulfonamide]
10 to 100 | Nc1n[nH]c(N2CCC(N(CCc3ccc(Cl)cc3)Cc3nnn[nH]3)CC2)n1 [Example 43, N-((1H-tetrazol-5-yl)methyl)-1-(3-amino-1H-1,2,4-triazol-5-yl)-N-(4-chlorophenethyl)piperidin-4-amine]
